IC50 data for 19 compounds are collected here from patent US20240109896A1, “FGFR KINASE INHIBITOR AND USE THEREOF” (YA THERAPEUTICS INC, priority 2021, published 2024).

Like-named read-outs stand apart in the source and are kept apart here.

The target of one assay is FGFR2 (Homo sapiens, UniProt P21802). As to the kind of experiment: In vitro activity inhibition test for kinase FGFR2. It is filed as biochemical. Particulars: kinase assay, 25° C.; read-out: Inhibition of separase IC50 (nM) FGFR2.
Chain of FGFR2 (P21802 22-821): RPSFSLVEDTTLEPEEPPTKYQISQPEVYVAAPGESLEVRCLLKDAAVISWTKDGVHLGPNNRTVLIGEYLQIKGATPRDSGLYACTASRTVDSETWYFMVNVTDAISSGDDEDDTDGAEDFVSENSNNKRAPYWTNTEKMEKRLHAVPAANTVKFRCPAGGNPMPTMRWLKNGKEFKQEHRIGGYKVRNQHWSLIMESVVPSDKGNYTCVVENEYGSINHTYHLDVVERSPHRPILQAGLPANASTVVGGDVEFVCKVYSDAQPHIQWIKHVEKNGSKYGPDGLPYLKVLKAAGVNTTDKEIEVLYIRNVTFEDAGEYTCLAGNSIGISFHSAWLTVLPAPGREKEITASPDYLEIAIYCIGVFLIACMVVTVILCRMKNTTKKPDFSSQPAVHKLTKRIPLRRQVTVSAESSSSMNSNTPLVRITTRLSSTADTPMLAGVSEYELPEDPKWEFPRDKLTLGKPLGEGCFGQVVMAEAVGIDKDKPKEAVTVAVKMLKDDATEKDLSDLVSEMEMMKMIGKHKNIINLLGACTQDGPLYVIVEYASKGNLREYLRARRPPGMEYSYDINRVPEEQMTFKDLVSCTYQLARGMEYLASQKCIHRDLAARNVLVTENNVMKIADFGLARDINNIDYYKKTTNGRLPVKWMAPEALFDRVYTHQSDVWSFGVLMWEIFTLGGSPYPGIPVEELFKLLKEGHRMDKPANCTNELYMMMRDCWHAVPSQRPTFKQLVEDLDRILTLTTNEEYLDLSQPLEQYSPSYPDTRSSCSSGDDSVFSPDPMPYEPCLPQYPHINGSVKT
Another assay addresses FGFR4 (Homo sapiens, UniProt P22455). As to the kind of experiment: In vitro activity inhibition test for kinase FGFR4.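 Also: caliper mobility shift assay of FGFR4 kinase activity, compounds tested as 10-point 4-fold dilution series with 0.5% DMSO final.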
Another assay concerns the target FGFR3 (Homo sapiens, UniProt P22607). The experiment in a line: In vitro activity inhibition test for kinase FGFR3.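 Also: FGFR3 kinase activity read by Caliper mobility shift assay, compounds run as 10-point 4-fold dilution series, final DMSO 0.5%.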
The test system of another assay is Hep3B cells. As to the kind of experiment: Human hepatoma cell Hep3B survival test (CellTiter-Glo). It counts as cell-based. Particulars: treated 72 hours, read-out: inhibitory activity on Hep3B cell proliferation IC50. As for the experimental part:
The Hep3B cell line of human liver cancer is derived from ATCC. Cells are supplemented with McCoy's 5A medium and additionally added fetal bovine serum (IOFBS). Cells are kept in the medium at 37° C., humidity at 95%, and carbon dioxide at 500. Hep3B cells were seeded in 96-well plates at a density of 3500 cells per well with a cell suspension volume of 90 μL per well and cultured at 37° C. in a cell culture incubator containing 500 CO2. […] The cells were then placed in a 37° C. incubator and treated with compounds for 72 hours.

The next assay has as its target FGFR1 (Homo sapiens, UniProt P11362). As to the kind of experiment: In vitro activity inhibition test for kinase FGFR1.

Chain of FGFR3 (P22607 23-806): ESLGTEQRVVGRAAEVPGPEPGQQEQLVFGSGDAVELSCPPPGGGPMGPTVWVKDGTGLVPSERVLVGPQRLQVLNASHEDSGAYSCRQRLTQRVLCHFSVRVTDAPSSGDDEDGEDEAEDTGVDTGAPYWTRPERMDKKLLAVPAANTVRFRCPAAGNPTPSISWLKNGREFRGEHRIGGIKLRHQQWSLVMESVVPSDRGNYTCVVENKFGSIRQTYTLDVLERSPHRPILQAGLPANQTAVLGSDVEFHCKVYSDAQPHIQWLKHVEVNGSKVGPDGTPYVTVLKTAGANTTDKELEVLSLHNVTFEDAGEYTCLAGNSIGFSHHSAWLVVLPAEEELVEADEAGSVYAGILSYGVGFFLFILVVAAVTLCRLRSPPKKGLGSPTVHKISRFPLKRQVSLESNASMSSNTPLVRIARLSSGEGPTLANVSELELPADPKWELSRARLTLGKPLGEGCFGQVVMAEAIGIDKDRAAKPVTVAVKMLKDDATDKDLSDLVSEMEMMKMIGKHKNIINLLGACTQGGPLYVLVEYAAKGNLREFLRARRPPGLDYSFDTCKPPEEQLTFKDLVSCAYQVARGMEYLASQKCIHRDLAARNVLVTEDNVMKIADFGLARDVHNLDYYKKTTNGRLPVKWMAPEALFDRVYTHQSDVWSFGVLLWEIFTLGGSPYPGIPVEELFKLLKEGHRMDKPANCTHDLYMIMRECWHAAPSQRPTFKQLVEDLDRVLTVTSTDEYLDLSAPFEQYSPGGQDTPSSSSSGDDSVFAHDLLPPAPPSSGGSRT
Chain of FGFR1 (P11362 22-822): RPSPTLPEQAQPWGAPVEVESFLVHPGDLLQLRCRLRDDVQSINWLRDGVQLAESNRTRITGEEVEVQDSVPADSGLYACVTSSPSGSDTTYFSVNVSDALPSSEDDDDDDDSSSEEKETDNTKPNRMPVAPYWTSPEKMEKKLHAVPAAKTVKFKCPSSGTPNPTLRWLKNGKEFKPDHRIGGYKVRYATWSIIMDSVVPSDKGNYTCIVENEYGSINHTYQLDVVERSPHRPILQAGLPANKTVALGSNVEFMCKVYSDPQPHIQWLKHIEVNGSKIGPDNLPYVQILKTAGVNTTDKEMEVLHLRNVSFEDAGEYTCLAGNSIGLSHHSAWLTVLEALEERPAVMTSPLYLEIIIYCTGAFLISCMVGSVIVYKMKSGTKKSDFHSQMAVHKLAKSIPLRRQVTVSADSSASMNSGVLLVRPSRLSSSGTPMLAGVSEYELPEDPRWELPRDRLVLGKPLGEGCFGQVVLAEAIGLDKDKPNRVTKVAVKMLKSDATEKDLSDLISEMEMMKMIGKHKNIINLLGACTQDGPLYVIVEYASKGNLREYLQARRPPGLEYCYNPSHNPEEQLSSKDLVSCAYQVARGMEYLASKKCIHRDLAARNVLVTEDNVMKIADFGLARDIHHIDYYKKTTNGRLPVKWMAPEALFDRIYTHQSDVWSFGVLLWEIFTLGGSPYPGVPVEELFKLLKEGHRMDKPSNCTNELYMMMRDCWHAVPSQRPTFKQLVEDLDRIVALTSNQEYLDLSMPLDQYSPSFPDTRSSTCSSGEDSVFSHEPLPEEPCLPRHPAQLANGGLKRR
Chain of FGFR4 (P22455 22-802): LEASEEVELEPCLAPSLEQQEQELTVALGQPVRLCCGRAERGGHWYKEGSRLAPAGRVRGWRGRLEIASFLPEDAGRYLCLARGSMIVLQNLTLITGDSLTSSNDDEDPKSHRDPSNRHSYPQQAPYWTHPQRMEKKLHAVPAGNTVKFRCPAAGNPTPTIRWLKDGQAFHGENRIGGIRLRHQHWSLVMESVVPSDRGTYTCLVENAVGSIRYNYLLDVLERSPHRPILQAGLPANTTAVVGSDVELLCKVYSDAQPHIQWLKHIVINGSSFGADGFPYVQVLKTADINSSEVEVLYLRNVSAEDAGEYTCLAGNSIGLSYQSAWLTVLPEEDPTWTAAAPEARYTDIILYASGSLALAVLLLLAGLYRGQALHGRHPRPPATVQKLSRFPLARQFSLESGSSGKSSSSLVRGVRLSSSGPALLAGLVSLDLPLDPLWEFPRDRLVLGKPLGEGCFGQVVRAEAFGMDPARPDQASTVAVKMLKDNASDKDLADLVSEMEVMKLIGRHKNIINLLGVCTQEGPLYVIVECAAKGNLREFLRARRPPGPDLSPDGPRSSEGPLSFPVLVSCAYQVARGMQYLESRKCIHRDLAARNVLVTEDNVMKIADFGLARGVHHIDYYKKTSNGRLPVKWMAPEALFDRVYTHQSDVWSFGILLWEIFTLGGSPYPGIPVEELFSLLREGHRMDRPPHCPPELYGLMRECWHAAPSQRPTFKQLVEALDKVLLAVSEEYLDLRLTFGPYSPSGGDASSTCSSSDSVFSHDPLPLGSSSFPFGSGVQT
Procedure for FGFR1: (§1) In Vitro Activity Inhibition Test for Kinases FGFR1, FGFR2, FGFR3 and FGFR4
(§2) The activity of FGFR1, FGFR2, FGFR3 and FGFR4 protein kinases was determined by Caliper mobility shift assay. Perform a 4-fold gradient dilution from a working concentration of 0.2 mM in DMSO, diluting 10 concentrations. Add 2 μL of compound to 78 μL of 1× compound buffer. There were 10 points each for the negative control and the positive control. Shake the board on the rocker for 20 min. […] The final concentration of DMSO was 0.5%.
Procedure for FGFR3: as §1, §2
Procedure for FGFR4: as §1, §2

With `C=CC(=O)N1CC[C@H](n2nc(-c3cc4cc(C)cc(OC)c4s3)c3c(N)n[nH]c(=O)c32)C1` [Compound 36, (S)-1-(1-acryloylpyrrolidin-3-yl)-4-amino-3-(7-methoxy-5-methylbenzo[b]thiophen-2-yl)-1,6-dihydro-7H-pyrazolo[3,4-d]pyridazin-7-one], the IC50 on FGFR2, on FGFR4, against FGFR3, in the assay on Hep3B cells (Homo sapiens) and at FGFR1 was under 10 nM each time.
In the case of “(S)-4-amino-1-(1-(but-2-ynoyl)pyrrolidin-3-yl)-3-((2,6-difluoro-3,5-dimethoxyphenyl)ethynyl)-1,6-dihydro-7H-pyrazolo[3,4-d]pyridazin-7-one [Compound 34]”, the IC50 in the assay with Hep3B cells is under 10 nM.
For the compound `C=CC(=O)N1CCC[C@H](n2cc(C#Cc3cc(OC)cc(OC)c3)c3c(N)n[nH]c(=O)c32)C1` [Compound 20, (S)-1-(1-acryloylpiperidin-3-yl)-4-amino-3-((3,5-dimethoxyphenyl)ethynyl)-1,6-dihydro-7H-pyrrolo[2,3-d]pyridazin-7-one], the IC50 on FGFR2, on FGFR4, on FGFR3, with Hep3B cells (Homo sapiens) and against FGFR1 was under 10 nM throughout.
`C=CC(=O)N1CC[C@H](n2nc(C#Cc3cc(OC)cc(OC)c3)c3c(N)n[nH]c(=O)c32)C1` [Compound 26, (S)-1-(1-acryloylpyrrolidin-3-yl)-4-amino-3-((3,5-dimethoxyphenyl)ethynyl)-1,6-dihydro-7H-pyrazolo[3,4-d]pyridazin-7-one]: the IC50 on FGFR2, on FGFR4, against FGFR3, with Hep3B cells (Homo sapiens) and on FGFR1 was under 10 nM throughout.
For the compound `C=CC(=O)N1CC[C@H](n2cc(C#Cc3cc(OC)cc(OC)c3)c3c(N)n[nH]c(=O)c32)C1` [Compound 22, (S)-1-(1-acryloylpyrrolidin-3-yl)-4-amino-3-((3,5-dimethoxyphenyl)ethynyl)-1,6-dihydro-7H-pyrrolo[2,3-d]pyridazin-7-one], the IC50 at FGFR2, at FGFR4, against FGFR3, in the assay with Hep3B cells (Homo sapiens) and at FGFR1 was under 10 nM each time.
Consider `C=CC(=O)N1CC[C@H](Nc2ncc(C(F)(F)F)c(C#Cc3cc(OC)cc(OC)c3)n2)C1` [Compound 4, (S)-1-(3-((4-((3,5-dimethoxyphenyl)ethynyl)-5-(trifluoromethyl)pyrimidin-2-yl)amino)pyrrolidin-1-yl)prop-2-en-1-one], for which the IC50 on FGFR2 lay within 100 to 500 nM; on FGFR4, 10 to 100 nM; against FGFR3, 10 to 100 nM; at FGFR1, 10 to 100 nM.
Turning to “2-(1-acryloylpyrrolidin-3-yl)-4-((3,5-dimethoxyphenyl)ethynyl)pyrimidine-5-carboxamide [Compound 19]”, the IC50 was under 10 nM on FGFR2; under 10 nM on FGFR4 (read-out: Inhibition of kinase IC50 (nM) FGFR4, kinase assay, 25° C.); under 10 nM at FGFR3 (read-out: Inhibition IC50 (nM) FGFR3, kinase assay, 25° C.); under 10 nM on FGFR1 (read-out: Inhibition of FGFR1 IC50 (nM) FGFR1, kinase assay, 25° C.).
For `CC#CC(=O)N1CC[C@H](n2nc(C#Cc3cc(OC)cc(OC)c3)c3c(N)n[nH]c(=O)c32)C1` [Compound 27, (S)-4-amino-1-(1-(but-2-ynoyl)pyrrolidin-3-yl)-3-((3,5-dimethoxyphenyl)ethynyl)-1,6-dihydro-7H-pyrazolo[3,4-d]pyridazin-7-one], the IC50 at FGFR2, on FGFR4, on FGFR3 and against FGFR1 was under 10 nM each time.
For `C=CC(=O)N1CC[C@H](n2nc(C#Cc3c(Cl)c(OC)cc(OC)c3Cl)c3c(N)n[nH]c(=O)c32)C1` [Compound 30, (S)-1-(1-acryloylpyrrolidin-3-yl)-4-amino-3-((2,6-dichloro-3,5-dimethoxyphenyl)ethynyl)-1,6-dihydro-7H-pyrazolo[3,4-d]pyridazin-7-one], the IC50 on FGFR2, on FGFR4, at FGFR3, in the assay with Hep3B cells (Homo sapiens) and against FGFR1 was under 10 nM each time.
With `C=CC(=O)N1CC2(CC(Nc3nc(N)c(C(N)=O)c(C#Cc4cc(OC)cc(OC)c4)n3)C2)C1` [Compound 7, 2-((2-acryloyl-2-azaspiro[3.3]heptan-6-yl)amino)-4-amino-6-((3,5-dimethoxyphenyl)ethynyl)pyrimidine-5-carboxamide], the IC50 on FGFR2, at FGFR4, against FGFR3 and at FGFR1 was 10 to 100 nM each time.
Consider `C=CC(=O)N1CC[C@H](n2cc(-c3cc4ccccc4n3C)c3c(N)n[nH]c(=O)c32)C1` [Compound 40, (S)-1-(1-acryloylpyrrolidin-3-yl)-4-amino-3-(1-methyl-1H-indol-2-yl)-1,6-dihydro-7H-pyrrolo[2,3-d]pyridazin-7-one], for which the IC50 on FGFR2, against FGFR4, against FGFR3 and at FGFR1 was under 10 nM in each case.
Consider `C=CC(=O)N1CC[C@H](Nc2ncc(F)c(C#Cc3cc(OC)cc(OC)c3)n2)C1` [Compound 3, (S)-1-(3-((4-((3,5-dimethoxyphenyl)ethynyl)-5-fluoropyrimidin-2-yl)amino)pyrrolidin-1-yl)prop-2-en-1-one], for which the IC50 on FGFR2, against FGFR4, against FGFR3 and on FGFR1 was 10 to 100 nM in each case.
In the case of `C=CC(=O)N1CC[C@H](Nc2nccc(C#Cc3cc(OC)cc(OC)c3)n2)C1` [Compound 1, (S)-1-(3-((4-((3,5-dimethoxyphenyl)ethynyl)pyrimidin-2-yl)amino)pyrrolidin-1-yl)prop-2-en-1-one], the IC50 at FGFR2 is 10 to 100 nM; on FGFR4, 10 to 100 nM; against FGFR3, 100 to 500 nM; on FGFR1, 10 to 100 nM.
Regarding `C=CC(=O)N1CC[C@H](n2cc(-c3cc4ccccc4o3)c3c(N)n[nH]c(=O)c32)C1` [Compound 41, (S)-1-(1-acryloylpyrrolidin-3-yl)-4-amino-3-(benzofuran-2-yl)-1,6-dihydro-7H-pyrrolo[2,3-d]pyridazin-7-one], the IC50 on FGFR2, against FGFR4, on FGFR3 and against FGFR1 was under 10 nM throughout.
In the case of `C=CC(=O)N1CC[C@H](Nc2ncc(C(N)=O)c(C#Cc3cc(OC)cc(OC)c3)n2)C1` [Compound 16, (S)-2-((1-acryloylpyrrolidin-3-yl)amino)-4-((3,5-dimethoxyphenyl)ethynyl)pyrimidine-5-carboxamide], the IC50 is under 10 nM on FGFR2, 10 to 100 nM against FGFR4, 10 to 100 nM against FGFR3 and under 10 nM against FGFR1.
Take `C=CC(=O)N1CCC2(CC1)CC(Nc1nc(N)c(C(N)=O)c(C#Cc3cc(OC)cc(OC)c3)n1)C2` [Compound 9, 2-((7-acryloyl-7-azaspiro[3.5]nonan-2-yl)amino)-4-amino-6-((3,5-dimethoxyphenyl)ethynyl)pyrimidine-5-carboxamide]: the IC50 on FGFR2 lay within 10 to 100 nM; on FGFR4, 100 to 500 nM; on FGFR3, 10 to 100 nM; against FGFR1 it was 100 to 500 nM.
Regarding `C=CC(=O)N1CC[C@H](n2cc(-c3cn(C)c4ccccc34)c3c(N)n[nH]c(=O)c32)C1` [Compound 42, (S)-1-(1-acryloylpyrrolidin-3-yl)-4-amino-3-(1-methyl-1H-indol-3-yl)-1,6-dihydro-7H-pyrrolo[2,3-d]pyridazin-7-one], the IC50 on FGFR2, against FGFR4, against FGFR3 and against FGFR1 was under 10 nM throughout.
As to `C=CC(=O)N1CCC(c2nc(N)c(C(N)=O)c(C#Cc3cc(OC)cc(OC)c3)n2)C1` (stereo not shown) [Compound 18, 2-(1-acryloylpyrrolidin-3-yl)-4-amino-6-((3,5-dimethoxyphenyl)ethynyl)pyrimidine-5-carboxamide], the IC50 at FGFR2 is under 10 nM; against FGFR4, under 10 nM; against FGFR3, under 10 nM; on FGFR1 it was 10 to 100 nM.
In the case of `C=CC(=O)N1CCC[C@H](n2nc(C#Cc3cc(OC)cc(OC)c3)c3c(N)n[nH]c(=O)c32)C1` [Compound 24, (S)-1-(1-acryloylpiperidin-3-yl)-4-amino-3-((3,5-dimethoxyphenyl)ethynyl)-1,6-dihydro-7H-pyrazolo[3,4-d]pyridazin-7-one], the IC50 at FGFR2, on FGFR4, against FGFR3, with Hep3B cells (Homo sapiens) and against FGFR1 was under 10 nM in each case.
